Reference: PMC9243654 (Frontiers in Nutrition, 2022)
Like-named read-outs stand apart in the source and are kept apart here. Each block holds one molecule with its values, some of them ahead of it.

Experiments:
in vitro = assay: in vitro
Procedure: The PAMPA-BBB assay was conducted according to the methodology followed by Di et al., with some modifications as described below ([15]). First, the BBB solution was prepared by dissolving 8 mg of PBL and 4 mg of cholesterol in 600 μl of n-dodecane. The initial donor solution was prepared by mixing 1 ml of extract (10 mg ml^−1 in EtOH) with 1 ml of buffer (PBS, pH = 7.4, 10 mM). The filter membrane of the donor plate was carefully coated with 5 μl of BBB solution. The acceptor plate was filled with 350 μl of buffer, and the donor plate was carefully assembled over the acceptor plate like a “sandwich.” Finally, the donor plate was filled with 350 μl of donor solution, covered, and incubated for 4 h at 37°C in the dark. After incubation time, 300 μl of the solution was taken from both plates, transferred to separate vials, and dried in the SpeedVac system at 40°C and 13 mbar pressure. Dried acceptor and donor solution were dissolved in 50 μl of pure EtOH before subjecting to UHPLC-Q-TOF-MS analysis. Permeability across in vitro BBB of the bioactive compound was measured according to Equation (1) ([25]), with some modifications in concentration rates.
(1) Pe=-ln[1-CA(t)/Ce]/A^*(1/VD+1/VA)^*t
Cequilibrium was calculated according to the following equation ([2]):
(2) Cequilibrium=[CD(t)*VD+CA(t)*VA]/(VD+VA)

[1] = ref PubChem database, cited from earlier work
[2] = compounds of RSFE extract, octanol-water partition coefficient
[3] = PAMPA, pH 7.4, PAMPA-BBB log Pe (cm s−1)
[4] = PAMPA, pH 7.4, PAMPA-BBB log Pe, compound within LPLE (Nothofagus pumilio, lenga PLE extract), N.D = not detected in acceptor

SMILES: CC(=O)O[C@H]1CC[C@]2(CO)[C@H]3CC[C@]4(C)[C@@H](c5ccc(=O)oc5)CC[C@]4(O)[C@@H]3CC[C@]2(O)C1 [Hellebrigenol-3-monoacetate]
- Cross BBB potential (in vitro; compound within KD extract): ++ (log Pe > −5.5)
- PAMPA-BBB log Pe (cm s−1) (in vitro; compound within KD extract, 4 h, 37°C, PBS pH 7.4): −4.70 cm s−1
- Log P ([1]; compounds of KD extract): 1.6

SMILES: O=C(/C=C/c1ccc(O)c(O)c1)O[C@H](Cc1ccc(O)c(O)c1)C(=O)O [Rosmarinic acid]
- Log P [1, 2]: 2.4
- Log P ([1]; compounds of T33 extract): 2.4

- Cross BBB potential (in vitro; compound within KD extract): -
SMILES: O=c1c(-c2ccc(O)cc2)coc2c([C@@H]3O[C@H](CO)[C@@H](O)[C@H](O)[C@H]3O)c(O)c([C@@H]3O[C@H](CO)[C@@H](O)[C@H](O)[C@H]3O)c(O)c12 [Paniculatin]
- Log P ([1]; compounds of KD extract): −2.3

SMILES: Oc1ccc(/C=C/c2cc(O)cc3c2[C@@H](c2cc(O)cc(O)c2)[C@H](c2ccc(O)cc2)O3)cc1 [ε-Viniferin]
- Cross BBB potential (in vitro; compound within ASFE extract): -
- Cross BBB potential (in vitro; compound within LPLE (Nothofagus pumilio, lenga PLE extract), classes based on Könczöl et al.): -
- Log P ([1]; compounds identified in LPLE extract): 5.4
- Log P ([1]; compounds of ASFE extract): 5.4

SMILES: O=C(/C=C/c1ccc(O)c(O)c1)O[C@@H]1C[C@](O)(C(=O)O)C[C@@H](O)[C@H]1O [Caffeoylquinic acid (chlorogenic acid), Caffeoylquinic acid]
- Papp at 4 h (in vitro; [3]): 10.2 ×10⁻⁶ cm/s

- Cross BBB potential (in vitro; PAMPA): +++
- PAMPA-BBB log Pe (cm s−1) (in vitro; PAMPA, 4 h, pH 7.4): −4.22 cm s−1
SMILES: COc1ccc(-c2cc(=O)c3c(O)cc(OC)cc3o2)cc1 [4-Methoxytectochrysin]
- Log P [1, 2]: 3.3

SMILES: COc1cc(/C=C/C(=O)O)ccc1O [Ferulic acid]
- Cross BBB potential (in vitro; PAMPA): ++ (key: -: not detected in acceptor; +: log Pe > −6.5; ++: log Pe > −5.5; +++: log Pe > −4.5)
- PAMPA-BBB log Pe (cm s−1) (in vitro; PAMPA, pH 7.4): −4.68 cm s−1
- Cross BBB potential (in vitro; compound within ASFE extract): -

SMILES: O=c1cc(-c2ccc(O)c(O)c2)oc2cc(O)cc(O)c12 [Luteolin]
- Papp at 4 h (in vitro; [3]): 38 ×10⁻⁶ cm/s

SMILES: O=c1oc2c(O)c(O)cc3c(=O)oc4c(O)c(O)cc1c4c23 [Ellagic acid]
- Cross BBB potential (in vitro; PAMPA): -

SMILES: O=C1C[C@@H](c2ccc(O)c(O)c2)Oc2cc(O)cc(O)c21 [Eriodictyol]
- Log P [1, 2]: 2.0

- Papp at 4 h (in vitro; [4]): 69.2 ×10⁻⁶ cm/s
SMILES: O=C(O)c1cc(O)c(O)c(O)c1 [Gallic acid]

SMILES: O=C(O)/C=C/c1ccc(O)c(O)c1 [Caffeic acid]
- Cross BBB potential (in vitro; PAMPA): -

SMILES: C[C@@H]1O[C@@H](OC[C@H]2O[C@@H](Oc3c(-c4ccc(O)c(O)c4)oc4cc(O)cc(O)c4c3=O)[C@H](O)[C@@H](O)[C@@H]2O)[C@H](O)[C@H](O)[C@H]1O [Rutin]
- Cross BBB potential (in vitro; PAMPA): -

SMILES: COc1cc(O)c2c(=O)cc(-c3ccc(O)cc3)oc2c1 [Genkwanin]
- Papp at 4 h (in vitro; [3]): 9.55 ×10⁻⁶ cm/s

- Papp at 4 h (in vitro; [3]): 75.9 ×10⁻⁶ cm/s
- Papp at 4 h (in vitro; [4]): 28.2 ×10⁻⁶ cm/s
SMILES: COc1cc2ccc(=O)oc2cc1O [Scopoletin]

SMILES: O=c1ccc2ccc(O)cc2o1 [Umbelliferone]
- Papp at 4 h (in vitro; PAMPA, pH 7.4): 38 ×10⁻⁶ cm/s
- Cross BBB potential (in vitro; compound within RSFE extract): +++ (log Pe > −4.5)

SMILES: C[C@@H]1O[C@@H](Oc2c(-c3ccc(O)cc3)oc3cc(O)cc(O)c3c2=O)[C@H](O)[C@H](O)[C@H]1O [Afzelin]
- Cross BBB potential (in vitro; PAMPA): -

SMILES: Oc1cc(O)c2c(c1)O[C@H](c1ccc(O)c(O)c1)[C@H](O)[C@H]2c1c(O)cc(O)c2c1O[C@H](c1ccc(O)c(O)c1)[C@H](O)C2 [Procyanidin B2]
- Cross BBB potential (in vitro; PAMPA): -

SMILES: CC(C)c1cc2c(c(O)c1O)[C@@]1(C(=O)O)CCCC(C)(C)[C@@H]1CC2 [Carnosic acid]
- Cross BBB potential (in vitro; PAMPA): ++ (key: -: not detected in acceptor; +: log Pe > −6.5; ++: log Pe > −5.5; +++: log Pe > −4.5)
- Papp (in vitro; [3]): 13.5 ×10⁻⁶ cm/s

- Papp at 4 h (in vitro; [3]): 70.8 ×10⁻⁶ cm/s
- Papp at 4 h (in vitro; [4]): 33.1 ×10⁻⁶ cm/s
SMILES: COc1cc(C=O)ccc1O [Vanillin]

SMILES: O=c1c(O[C@@H]2O[C@H](CO)[C@@H](O)[C@H](O)[C@H]2O)c(-c2ccc(O)c(O)c2)oc2cc(O)cc(O)c12 [Isoquercitrin]
- Cross BBB potential (in vitro; PAMPA): -

SMILES: O=c1c(O)c(-c2cc(O)c(O)c(O)c2)oc2cc(O)cc(O)c12 [Myricetin]
- Cross BBB potential (in vitro; PAMPA): -
